Test results as given in ChEMBL document CHEMBL1201862, “PubChem BioAssay data set” (2004).
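Tested at 5 concentrations; 48 h exposure; 96-well plates; endpoints linearly interpolated, else capped at highest concentration. At the GI50, growth is halved.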 The source made the active and inactive calls. Rule as the data show it: active = GI50 up to about 1.1 µM and inactive = higher.

Tests used:
Test in all cases: NCI tumour cell line growth inhibition, 48 h
[1] = test system: T47D
[2] = test system: MDA-MB-435
[3] = test system: HCC 2998
[4] = test system: MCF7
[5] = test system: EKVX
[6] = test system: UO-31
[7] = test system: NCI-H460
[8] = test system: IGROV-1
[9] = test system: NCI-H226
[10] = test system: HOP-62
[11] = test system: HCT-15
[12] = test system: BT-549
[13] = test system: ACHN
[14] = test system: NCI/ADR-RES
[15] = test system: SK-OV-3
[16] = test system: UACC-62
[17] = test system: KM12
[18] = test system: COLO 205
[19] = test system: SK-MEL-28
[20] = test system: CCRF-CEM
[21] = test system: MDA-N
[22] = test system: K562
[23] = test system: UACC-257
[24] = test system: OVCAR-3
[25] = test system: SNB-19
[26] = test system: NCI-H23
[27] = test system: HT-29
[28] = test system: MDA-MB-231
[29] = test system: 786-0
[30] = test system: SF-295
[31] = test system: M14
[32] = test system: TK-10
[33] = test system: OVCAR-8
[34] = test system: MOLT-4
[35] = test system: Hs-578T
[36] = test system: CAKI-1
[37] = test system: HL-60
[38] = test system: DU-145
[39] = test system: Malme-3M
[40] = test system: SN12C
[41] = test system: SW-620
[42] = test system: RXF 393
[43] = test system: RPMI-8226
[44] = test system: HCT-116
[45] = test system: OVCAR-5
[46] = test system: PC-3
[47] = test system: A549
[48] = test system: SNB-75
[49] = test system: SF-268
[50] = test system: SK-MEL-5
[51] = test system: OVCAR-4
[52] = test system: SK-MEL-2
[53] = test system: U-251
[54] = test system: HOP-92
[55] = test system: LOX IMVI
[56] = test system: SF-539
[57] = test system: A498
[58] = test system: NCI-H522

`O=S(=O)(c1ccc(Cl)cc1)c1ccccc1C1=NCCN1` was tested, and the GI50 [1] was > 100 µM (inactive), the GI50 [2] was > 100 µM (inactive) and the GI50 [3] was > 100 µM (inactive). For the same compound, the GI50 [4] was > 100 µM (inactive), the GI50 [5] was > 100 µM (inactive) and the GI50 [6] was > 100 µM (inactive). The GI50 [7] was > 100 µM (inactive), the GI50 [8] was > 100 µM (inactive) and the GI50 [9] was > 100 µM (inactive). The GI50 [10] was > 100 µM (inactive), the GI50 [11] was > 100 µM and the GI50 [12] was > 100 µM (inactive). The GI50 [13] was > 100 µM (inactive), the GI50 [14] was > 100 µM (inactive) and the GI50 [15] was > 100 µM (inactive). For the same compound, the GI50 [16] was > 100 µM (inactive), the GI50 [17] was > 100 µM (inactive) and the GI50 [18] was > 100 µM (inactive). The GI50 [19] was > 100 µM (inactive), the GI50 [20] was > 100 µM (inactive) and the GI50 [21] was > 100 µM (inactive). For the same compound, the GI50 [22] was > 100 µM (inactive), the GI50 [23] was > 100 µM (inactive) and the GI50 [24] was > 100 µM (inactive). The GI50 [25] was > 100 µM (inactive), the GI50 [26] was > 100 µM (inactive) and the GI50 [27] was > 100 µM (inactive). The GI50 [28] was > 100 µM (inactive), the GI50 [29] was > 100 µM (inactive) and the GI50 [30] was > 100 µM (inactive). The GI50 [31] was > 100 µM (inactive), the GI50 [32] was > 100 µM (inactive) and the GI50 [33] was > 100 µM (inactive). For the same compound, the GI50 [34] was > 100 µM (inactive), the GI50 [35] was > 100 µM (inactive) and the GI50 [36] was > 100 µM (inactive). The GI50 [37] was > 100 µM (inactive), the GI50 [38] was > 100 µM (inactive) and the GI50 [39] was > 100 µM (inactive). The GI50 [40] was > 100 µM (inactive), the GI50 [41] was > 100 µM (inactive) and the GI50 [42] was > 100 µM (inactive). The GI50 [43] was > 100 µM (inactive), the GI50 [44] was > 100 µM (inactive) and the GI50 [45] was > 100 µM (inactive). For the same compound, the GI50 [46] was > 100 µM (inactive), the GI50 [47] was > 100 µM (inactive) and the GI50 [48] was > 100 µM (inactive). The GI50 [49] was > 100 µM (inactive), the GI50 [50] was > 100 µM (inactive) and the GI50 [51] was > 100 µM (inactive). The GI50 [52] was > 100 µM (inactive) and the GI50 [53] was > 100 µM (inactive).

In the case of `N#CCCN(CCC#N)c1ccc(/C=C2\N=C(c3ccccc3)N(c3ccc(C(=O)O)cc3)C2=O)cc1`, the GI50 [1] is reported as 40.7 µM (inactive), the GI50 [2] is reported as 31.8 µM (inactive) and the GI50 [54] is reported as 6.28 µM (inactive). For the same compound, the GI50 [4] was 37.6 µM (inactive), the GI50 [5] was 26.2 µM (inactive) and the GI50 [6] was 77.1 µM (inactive). The GI50 [7] was 27.6 µM (inactive), the GI50 [55] was 30.9 µM (inactive) and the GI50 [8] was 20.3 µM (inactive). For the same compound, the GI50 [9] was 27.9 µM (inactive), the GI50 [10] was > 100 µM (inactive) and the GI50 [11] was 40.8 µM. The GI50 [12] was 24.4 µM (inactive), the GI50 [13] was 42.5 µM (inactive) and the GI50 [14] was > 100 µM (inactive). The GI50 [15] was > 100 µM (inactive), the GI50 [16] was 23.8 µM (inactive) and the GI50 [17] was 17.2 µM (inactive). The GI50 [18] was 39 µM (inactive), the GI50 [19] was 36 µM (inactive) and the GI50 [21] was > 100 µM (inactive). The GI50 [22] was 38.2 µM (inactive), the GI50 [23] was 37.2 µM (inactive) and the GI50 [24] was 40.1 µM (inactive). For the same compound, the GI50 [25] was 32.2 µM (inactive), the GI50 [27] was 95.1 µM (inactive) and the GI50 [56] was 24.4 µM (inactive). For the same compound, the GI50 [28] was 52 µM (inactive), the GI50 [29] was 52 µM (inactive) and the GI50 [30] was 48.8 µM (inactive). The GI50 [31] was 72.1 µM (inactive), the GI50 [32] was > 100 µM (inactive) and the GI50 [33] was 26.2 µM (inactive). For the same compound, the GI50 [34] was 0.641 µM (active), the GI50 [35] was 22.3 µM (inactive) and the GI50 [37] was > 10 µM (inactive). The GI50 [38] was 69.2 µM (inactive), the GI50 [40] was 70.1 µM (inactive) and the GI50 [41] was 21 µM (inactive). For the same compound, the GI50 [42] was 40.7 µM (inactive), the GI50 [43] was 46.8 µM (inactive) and the GI50 [44] was 33.7 µM (inactive). The GI50 [45] was > 100 µM (inactive), the GI50 [46] was 37.5 µM (inactive) and the GI50 [47] was > 100 µM (inactive). For the same compound, the GI50 [57] was > 100 µM (inactive), the GI50 [49] was 21.1 µM (inactive) and the GI50 [50] was 36.6 µM (inactive). For the same compound, the GI50 [51] was 14.4 µM (inactive), the GI50 [52] was 52.5 µM (inactive) and the GI50 [53] was 30.2 µM (inactive).

For `O=c1c2ccccc2nc2n1C(c1ccc([N+](=O)[O-])cc1)C2(c1ccccc1)c1ccccc1` (configuration not stated), the GI50 [1] was > 100 µM (inactive), the GI50 [2] was > 100 µM (inactive) and the GI50 [54] was > 100 µM (inactive). The GI50 [4] was 54.6 µM (inactive), the GI50 [5] was > 100 µM (inactive) and the GI50 [7] was > 100 µM (inactive). The GI50 [55] was > 100 µM (inactive), the GI50 [8] was > 100 µM (inactive) and the GI50 [10] was > 100 µM (inactive). The GI50 [11] was > 100 µM, the GI50 [12] was > 100 µM (inactive) and the GI50 [13] was > 100 µM (inactive). For the same compound, the GI50 [14] was > 100 µM (inactive), the GI50 [15] was > 100 µM (inactive) and the GI50 [16] was > 100 µM (inactive). For the same compound, the GI50 [17] was > 100 µM (inactive), the GI50 [18] was 8.3 µM (inactive) and the GI50 [19] was > 100 µM (inactive). The GI50 [20] was 8.45 µM (inactive), the GI50 [21] was > 100 µM (inactive) and the GI50 [23] was > 100 µM (inactive). For the same compound, the GI50 [24] was > 100 µM (inactive), the GI50 [25] was 14.5 µM (inactive) and the GI50 [26] was > 100 µM (inactive). For the same compound, the GI50 [27] was 9.98 µM (inactive), the GI50 [56] was > 100 µM (inactive) and the GI50 [28] was > 100 µM (inactive). The GI50 [29] was > 100 µM (inactive), the GI50 [30] was > 100 µM (inactive) and the GI50 [31] was > 100 µM (inactive). The GI50 [32] was > 100 µM (inactive), the GI50 [58] was > 100 µM (inactive) and the GI50 [33] was > 100 µM (inactive). The GI50 [34] was 5.46 µM (inactive), the GI50 [35] was 66.2 µM (inactive) and the GI50 [36] was > 100 µM (inactive). The GI50 [37] was 37.2 µM (inactive), the GI50 [38] was > 100 µM (inactive) and the GI50 [39] was > 100 µM (inactive). The GI50 [40] was > 100 µM (inactive), the GI50 [41] was > 100 µM (inactive) and the GI50 [42] was > 100 µM (inactive). The GI50 [43] was 8.2 µM (inactive), the GI50 [44] was > 100 µM (inactive) and the GI50 [45] was > 100 µM (inactive). For the same compound, the GI50 [46] was 24 µM (inactive), the GI50 [47] was 12.9 µM (inactive) and the GI50 [57] was > 100 µM (inactive). For the same compound, the GI50 [49] was > 100 µM (inactive), the GI50 [50] was > 100 µM (inactive) and the GI50 [51] was > 100 µM (inactive). The GI50 [52] was > 100 µM (inactive) and the GI50 [53] was > 100 µM (inactive).
